The subject of experiment [1] is thrombospondin-1 (TSP-1) in HUVEC. As to the kind of experiment: TSP-1 protein expression in HUVEC by Western blot. The format is cell-based, human. The following applies: prolonged exposure and higher drug concentrations of 5-FU, FIG. 3. The protocol: Thrombospondin (TSP) is a macromolecule with various functions, and among its isoforms, TSP-1 acts as an angiogenesis inhibitor. The following experiment was conducted to examine changes in TSP-1 expression in response to different concentrations of 5-FU.
Western blot analysis was conducted to confirm the expression of TSP-1 protein in the HUVEC (human umbilical vein endothelial cell) cell line.
HUVECs cultured in petri dishes were lysed using a buffer containing 50 mM Tris (pH 8.0), 150 mM NaCl, 1% Nonidet P-40, 0.5% sodium deoxycholate (SDC), 0.1% sodium dodecyl sulfate (SDS), and 1× protease inhibitor cocktail. The lysates were incubated on ice for 30 minutes, followed by centrifugation at 14,000 g for 10 minutes to collect the supernatant.
Protein quantification was performed using a bicinchoninic acid (BCA) protein assay kit (Pierce Chemical, Rockford, IL, USA). A total of 30 μg of protein was subjected to electrophoresis on a 10% SDS-polyacrylamide gel and subsequently transferred onto a nitrocellulose membrane. The membrane was blocked with blocking milk for 1 hour, then incubated with the same TSP-1 antibody used for immunostaining at room temperature for 1 hour. After three washes with Tris buffer containing 0.1% Tween 20 at 15-minute intervals, the membrane was incubated with a secondary antibody specific to the primary antibody at room temperature for 1 hour. […]
(A western blot detects proteins with antibodies after separation by electrophoresis.)

The subject of experiment [2] is VEGF. Description: VEGF immunohistochemical staining of gastric tumor tissue after local injection of 5-FU in nude mice. The format is in vivo. The protocol: To observe changes in vascular tissue within gastric tumor masses after local injection of 5-FU, immunohistochemical staining for CD31 and VEGF was performed.
For the control group, gastric tumor tissue was implanted in the dorsal region of nude mice, and when the tumor reached a size of 1 cm×1 cm, it was excised and used. For the 5-FU injection group, 5 mg of 5-FU was injected at the base of the tumor when the implanted tumor reached a size of 1 cm×1 cm. […] The immunohistochemical staining method was as follows.
To reduce endogenous peroxidase activity present in blood cells within the tissue, the slides were treated at room temperature with 3% H2O2 in methanol for 15 minutes. […] The slides were washed twice with TBST (Tris-buffered saline with 0.1% Tween® 20 Detergent) for 3 minutes each, followed by incubation at room temperature for 15 minutes with Detection Kit Reagent 1 (HRP Polymer-anti-mouse/rabbit IgG). […] For counterstaining, Harris hematoxylin was applied.
For result analysis, the proportion of the area stained for CD31-positive blood vessels and VEGF-positive cancer cells relative to the total tissue area was calculated, and a comparison was made between the control group and the 5-FU locally injected group.

The subject of experiment [3] is human gastric cancer cells. As to the kind of experiment: Human gastric cancer cell xenograft in nude mice, alkaline 5-FU injected adjacent to tumor. The following applies: 5 mg 5-FU pH 8.4, three times at one-week intervals, 4 weeks, P<0.05, FIG. 8. The format is in vivo, nude mice (Crj: BALB/c-nu/nu), human tumor cells. The protocol: The animals used in the experiment were six male nude mice (Crj: BALB/c-nu/nu mice, male) aged five weeks and weighing approximately 30 grams, purchased from Orient. The mice were subjected to a one-week acclimation period in the laboratory before use. Each nude mouse was subcutaneously xenografted with 5×10^6 human gastric cancer cells suspended in 100 μL of PBS on the dorsal subcutaneous layer. The tumor size was periodically measured, and when it reached a diameter of 1 cm, the drug administration experiment was conducted.
The experimental animals were divided into two groups. One group served as the control group, receiving only physiological saline, while the other group was administered 5 mg of 5-FU at pH 8.4. The drug was injected 0.2 cc adjacent to the tumor three times at one-week intervals. After one month, the major and minor axes of the tumors growing on the dorsal epidermis were measured.
(In general: In xenograft studies the graft and the host belong to different species.)

Molecules are shown by their SMILES.

As for `O=c1[nH]cc(F)c(=O)[nH]1` [5-FU, 5-fluorouracil], the TSP-1 expression levels result in experiment [1] is reported as “increased expression levels”. The “Immuno-positive area (%)” value in experiment [2] (VEGF, proportion of total tissue area, 5 mg 5-FU, one week after injection, control group 0.38) was determined as 0.10%. Further, the VEGF secretion levels result in experiment [2] (compared to control group) is listed as “decreased”. Also, in experiment [2] (compared to control group, FIG. 7), the VEGF stained area entry is recorded as “appeared smaller”. In experiment [3], the “tumor size compared to before injection” value is on record as “significantly reduced”.
